# Experimental data taken from patent publication US11241480B2, “Methods for modulation of dietary and microbial exposure with compositions comprising an EGFR ligand” (Washington University, priority 2017, dated 2022).
# Entries after “also recorded” stand apart in the source; their conditions may differ.
# What was measured:
# [1] = test system: colon draining MLN; assay: MLN culture cytokines and colon H/E histology on DOL35; type: in vivo; conditions: DOL35 mice; for colon pathology (H/E sections): EGFRi DOL14 and 16 or DOL24 and 26, intracolonic EGF DOL10-21
# Protocol: Isolation of cellular populations and flow cytometry: Small intestines or colons were harvested, rinsed with PBS, and Peyer's patches or colonic patches were removed. Epithelial cellular populations were released by incubating for 15 min three times in a 37° C. rotating incubator in HBSS media (BioWhittaker, Walkersville, Md.) containing 5 mM EDTA as previously described. Isolation of splenic, MLN and lamina propria (LP) cellular populations was performed as previously described. In some experiments, single cell suspensions of MLN were cultured in cell culture media for three days as previously described. The first wash of HBSS+EDTA was used to isolate goblet cells as below. SI and colonic LP-MNPs were identified as 7AAD^−, CD45^+, CD11c^+, MHCII^+for flow cytometric sorting. Goblet cells were identified as CD45^−, CD24^−CK18^+, UEA-I^+for flow cytometric sorting as previously described. For intracellular antigens and cytokines, cells were fixed and permeabilized overnight and stained per the manufacturers recommendations (eBioscience). Flow cytometry was performed with a FACScan cytometer (BD Biosciences, San Jose, Calif.) retrofitted with additional lasers. Data acquisition was performed using CellQuest (BD Biosciences) and Rainbow (Cytek,Fremont, Calif.) or FlowJo software (Tree Star, Ashland, OR). Data analysis was performed on a Macintosh computer running FlowJo software.
# Measurement of cytokines, EGF, and immunoglobulins: Cytokines and EGF were measured using the using ELISAs for EGF (R&D systems), phosphorylated MAPK, phosphorylated EGFR, IL17 (eBioscience), IFNγ and IL-10, (R&D systems) per the manufacturers recommendations. Luminal EGF was measured in stomach, SI, and colonic contents; to isolate contents the stomach was opened and contents was added to 1 ml PBS. […] Phosphorylated MAPK, and phosphorylated EGFR was measured on epithelial cells from the SI or colon isolated by one 15 minute wash with HBSS+EDTA as described above. Cytokines were measured on supernatants from cultured MLNs.
# [2] = test system: C57BL/6 mice; assay: Oral tolerance and delayed type hypersensitivity (DTH) response to Ova; type: in vivo
# Protocol: Antibiotic treatment: Mice were given a combination of antibiotics (Abx) ampicillin (1 g/L), metronidazole (1 g/L), neomycin (1 g/L), and vancomycin (500 mg/L) in drinking water for the time periods outlined in the figure legends.
# EGFRi treatment: Mice were injected with 500 μg/kg tyrphostin AG1478 (an inhibitor of EGFR phosphorylation) in the neonatal, post-neonatal, or weaned phase on DOLs noted in the text or figure legends.
# Oral tolerance and Delayed Type Hypersensitivity Responses: Mice, and/or nursing dams, when treated prior to weaning, were given Ova 20 g/L in drinking water, or drinking water alone for the intervals defined in the figure legend. Four weeks and six weeks following dietary Ova exposure mice were immunized subcutaneously with 100 μg Ova in incomplete Freund's Adjuvant (Sigma Aldrich). Two weeks after the last immunization mice were challenged with 20 μg Ova in the footpad, body temperature monitored for one hour, and the increase in footpad thickness evaluated using measurements taken with micrometer calipers taken before and 24 hours after challenge. To directly evaluate colonic antigen delivery and blockade of GAPs in the development of tolerance, enemas containing Ova 10 μg/gm body weight with or without 10 μg EGF were administered intrarectally every other day five times from DOL 14 to 22 (post-neonatal phase) or DOL 56 to 64 (adult). Mice were rested three weeks, and then systemically immunized and challenged in the footpad as above.
# [3] = test system: colonic LP-APCs (LP-MNPs); assay: Luminal antigen delivery to LP-APCs/LP-MNPs, read out by ex vivo T cell co-culture; type: in vivo, mice; conditions: for luminal antigen uptake by colonic APCs (expansion of Ova-specific T-cells): DOL 18 mice, agent concurrent with luminal Ova
# Protocol: Analysis of luminal antigen delivery to LP-DCs: Mice received Ova 20 g/L (Sigma Aldrich) for 3 days prior to isolation of LP-APCs (dietary Ova FIG. 1C) or were anesthetized and 2 mg Ova (OTI assay) or 25 mg Ova (OTII assay) dissolved in phosphate buffered saline (PBS), or PBS alone (controls), was injected intraluminally into the SI or colon as previously described. Two hours later cell populations were isolated from the non-Peyer's patch bearing SI LP or non-colonic patch bearing colon LP. APC populations and Ova specific […] T-cells were isolated with flow cytometric cell sorting and cultured at a ratio of 1:10 APCs (1×10^4) to T-cells (1×10^5). As a positive control, 10 μg Ova was added to cultures of APC populations isolated from mice receiving luminal PBS. After 3 days, cultures were evaluated for the number of T-cells by flow cytometry and cell counting.
# LP-MNP/T cell co-culture: 1×10^5 flow cytometrically sorted splenic CD3+CD4+Vβ8.3+ CBir1 T cells or 1×10^5 flow cytometrically sorted splenic CD3^+CD4^+Vα2^+Vβ5^+ OTI T cells were cultured with […] CD45+ MHCII+ CD11c+ flow cytometrically sorted SI or colonic LP-MNPs isolated from mice two hours following intraluminal administration of 2 mg Ova or PBS. Some wells were cultured with 10 μg Ova or 10 μg CBir1 Flagellin as a positive control. After three days, cultured cells were counted and analyzed by flow cytometry to determine absolute number of transgenic cells to calculate fold increase of T cells.
# [4] = dietary Ova DOL 0-30, EGFRi DOL 6 and 8 or DOL 24 and 26
Compound,colon pathology (H/E sections) [1],"tolerance to luminal Ova (DTH, footpad thickness) ([2]; Ova enemas with EGF every other day DOL 14-22 (post-neonatal phase colon))",luminal antigen uptake by colonic APCs (expansion of Ova-specific T-cells) [3],luminal antigen uptake by colonic APCs (expansion of Ova-specific T-cells) ([3]; listed as recombinant EGF),inflammatory cytokine production in the colon draining MLN ([1]; EGFRi post-weaning (DOL24 and 26)),"lethargy/hypothermia upon rechallenge with sterile Ova in the footpad [2, 4]","oral tolerance (footpad swelling upon Ova rechallenge) [2, 4]","lethargy/hypothermia upon rechallenge with sterile Ova in the footpad ([2]; dietary Ova DOL 0-30, EGFRi DOL 6 and 8 or DOL 24 and 26, listed as inhibitor of EGFR activation)","capacity of colonic LP-MNPs to stimulate CBir1 T cells ex vivo ([3]; post-weaning mice (DOL28), EGFR inhibition DOL24 and 26)"
"EGF: recombinant murine EGF (Shenandoah); EGFR ligand, given luminally or intracolonically",no overt pathology,abrogated tolerance to luminal Ova; also recorded: attenuates tolerance to a luminal antigen,impaired at expanding Ova-specific T-cells,inhibited GAPs and luminal antigen loading of LP-MNPs,,,,,
"COc1cc2ncnc(Nc3cccc(Cl)c3)c2cc1OC [EGFRi, tyrphostin AG1478]",does not induce overt pathologic changes,,,,results in inflammatory cytokine production in the colon draining MLN,lethargic and hypothermic,significantly abrogated,developed hypothermia,allowed colonic LP-MNPs from post-weaning mice to capture microbial antigen to stimulate CBir1 T cells ex-vivo
